Test system: hepatocytes
Assay: Seq-Well scRNA-Seq of hepatocytes after APAP overdose (signature scores, DEG vs untreated)
Assay type: in vivo, mouse
[1] = cluster A6, DEG between treatment (APAP and PH)

SMILES: CC(=O)Nc1ccc(O)cc1 [APAP, acetaminophen]
- Ugdh avg_logFC (cluster A6 (APAP 6 hr)): 0.5563
- Ugdh pct.1 (cluster A6 (APAP 6 hr)): 0.721
- Vcam1 avg_logFC (cluster A6 (APAP 6 hr)): 0.4376
- Vcam1 pct.1 (cluster A6 (APAP 6 hr)): 0.134
- Vsig4 avg_logFC (cluster A6 (APAP 6 hr)): 0.4542
- Vsig4 pct.1 (cluster A6 (APAP 6 hr)): 0.117
- Wfdc17 avg_logFC (cluster A6 (APAP 6 hr)): 0.4173
- Wfdc17 pct.1 (cluster A6 (APAP 6 hr)): 0.177
- Xbp1 avg_logFC (cluster A6 (APAP 6 hr)): 0.4407
- Xbp1 pct.1 (cluster A6 (APAP 6 hr)): 0.692
- Ywhag avg_logFC (cluster A6 (APAP 6 hr)): 0.4649
- Ywhag pct.1 (cluster A6 (APAP 6 hr)): 0.518
- mmu-mir-6240 avg_logFC (cluster A6 (APAP 6 hr)): 1.083
- mmu-mir-6240 pct.1 (cluster A6 (APAP 6 hr)): 0.413
- avg_logFC 1700017B05Rik [1]: 0.3277
- avg_logFC 2010003K11Rik [1]: 0.5729
- avg_logFC AA474408 [1]: 0.2664
- avg_logFC Aass [1]: 0.4071
- avg_logFC Abca1 [1]: 0.6539
- avg_logFC Abhd2 [1]: 0.4149
- avg_logFC Actb [1]: 1.052
- avg_logFC Aff4 [1]: 0.5363
- avg_logFC Agpat9 [1]: 0.3049
- avg_logFC Alb [1]: 0.3749
- avg_logFC Apoa4 [1]: 1.166
- avg_logFC Apob [1]: 0.4802
- avg_logFC App [1]: 0.3381
- avg_logFC Arhgef12 [1]: 0.4856
- avg_logFC Asl [1]: 0.4135
- avg_logFC B4galt5 [1]: 0.4239
- avg_logFC Bach1 [1]: 0.7686
- avg_logFC Bcl2l1 [1]: 0.7415
- avg_logFC Bcl3 [1]: 0.2741
- avg_logFC Btg1 [1]: 0.3984
- avg_logFC Btg2 [1]: 0.7669
- avg_logFC C3 [1]: 0.2785
- avg_logFC C230081A13Rik [1]: 0.4184
- avg_logFC Cars [1]: 0.3067
- avg_logFC Ccl6 [1]: 0.7868
- avg_logFC Cdkn1a [1]: 1.252
- avg_logFC Cers6 [1]: 0.5071
- avg_logFC Chic2 [1]: 0.3964
- avg_logFC Chka [1]: 1.403
- avg_logFC Cidec [1]: 0.3067
- avg_logFC Cldn14 [1]: 0.3695
- avg_logFC Clec4f [1]: 1.124
- avg_logFC Cltc [1]: 0.6852
- avg_logFC Creb3l2 [1]: 0.3971
- avg_logFC Ctsl [1]: 0.5128
- avg_logFC Cxadr [1]: 0.6568
- avg_logFC Cyp4a14 [1]: 0.3334
- avg_logFC D10Wsu102e [1]: 0.5698
- avg_logFC Ddx3x [1]: 0.5612
- avg_logFC Ddx5 [1]: 0.5397
- avg_logFC Ddx21 [1]: 0.6559
- avg_logFC Dgkd [1]: 0.3584
- avg_logFC Dkc1 [1]: 0.3054
- avg_logFC Dot1l [1]: 0.3853
- avg_logFC Dusp6 [1]: 0.5087
- avg_logFC Dusp16 [1]: 0.4273
- avg_logFC Eaf1 [1]: 0.5072
- avg_logFC Eef2 [1]: 0.4059
- avg_logFC Efhd2 [1]: 0.5766
- avg_logFC Egr1 [1]: 0.537
- avg_logFC Eif1a [1]: 0.7228
- avg_logFC Eif4g2 [1]: 0.4126
- avg_logFC Eif5 [1]: 0.4809
- avg_logFC Epas1 [1]: 0.7138
- avg_logFC Epb4.1 [1]: 0.4678
- avg_logFC Errfi1 [1]: 0.3421
- avg_logFC Etf1 [1]: 0.4526
- avg_logFC Ets2 [1]: 0.6806
- avg_logFC Fam107b [1]: 0.4162
- avg_logFC Fam134b [1]: 0.8152
- avg_logFC Fga [1]: 0.501
- avg_logFC Fgb [1]: 0.4774
- avg_logFC Fgg [1]: 0.4751
- avg_logFC Fkbp5 [1]: 0.4567
- avg_logFC Fndc3b [1]: 0.3496
- avg_logFC Gclc [1]: 1.802
- avg_logFC Gcnt2 [1]: 0.5038
- avg_logFC Gjb2 [1]: 0.5038
- avg_logFC Gm15564 [1]: 0.7861
- avg_logFC Gm20594 [1]: 0.4405
- avg_logFC Gm24245 [1]: 0.4984
- avg_logFC Gm26917 [1]: 0.4239
- avg_logFC Gm26924 [1]: 0.7269
- avg_logFC Gn12 [1]: 0.358
- avg_logFC Gnl3 [1]: 0.4902
- avg_logFC Gpt2 [1]: 0.4695
- avg_logFC Gsta1 [1]: 0.4089
- avg_logFC Gtpbp4 [1]: 0.4623
- avg_logFC H3f3b [1]: 0.7184
- avg_logFC Hbb-bs [1]: 2.586
- avg_logFC Heatr1 [1]: 0.3815
- avg_logFC Hif1a [1]: 0.4876
- avg_logFC Hilpda [1]: 0.7803
- avg_logFC Hmox1 [1]: 1.34
- avg_logFC Hnf4a [1]: 0.6962
- avg_logFC Hnrnpdl [1]: 0.3993
- avg_logFC Hsd17b13 [1]: 0.4804
- avg_logFC Hspb8 [1]: 0.6089
- avg_logFC Ifrd1 [1]: 0.4765
- avg_logFC Igfbp1 [1]: 1.09
- avg_logFC Iigp1 [1]: 0.6431
- avg_logFC Il1r1 [1]: 1.189
- avg_logFC Insig2 [1]: 0.6081
- avg_logFC Itih2 [1]: 0.3927
- avg_logFC Itih3 [1]: 0.4042
- avg_logFC Jak1 [1]: 0.5437
- avg_logFC Jmjd1c [1]: 0.5963
- avg_logFC Kif5b [1]: 0.4522
- avg_logFC Klf6 [1]: 0.7067
- avg_logFC Krt8 [1]: 1.273
- avg_logFC Krt18 [1]: 1.227
- avg_logFC Lars2 [1]: 0.8143
- avg_logFC Lcn2 [1]: 0.3876
- avg_logFC Lmo4 [1]: 0.2962
- avg_logFC Lpin2 [1]: 0.5165
- avg_logFC Lrg1 [1]: 0.3324
- avg_logFC Lrrc58 [1]: 0.9396
- avg_logFC Lrrfip1 [1]: 0.4108
- avg_logFC Lyst [1]: 0.3717
- avg_logFC Mak16 [1]: 0.2897
- avg_logFC Malat1 [1]: 0.9854
- avg_logFC Map2k3 [1]: 0.415
- avg_logFC Map3k5 [1]: 0.3131
- avg_logFC Mat1a [1]: 0.3889
- avg_logFC Mat2a [1]: 0.4758
- avg_logFC Mcl1 [1]: 0.5249
- avg_logFC Mdn1 [1]: 0.3079
- avg_logFC Mfsd2a [1]: 0.461
- avg_logFC Mmp14 [1]: 0.2571
- avg_logFC Mpeg1 [1]: 0.4668
- avg_logFC Mrap [1]: 0.8615
- avg_logFC Mt1 [1]: 2.32
- avg_logFC Mt2 [1]: 2.038
- avg_logFC Mybbp1a [1]: 0.4018
- avg_logFC Myh9 [1]: 1.025
- avg_logFC Myl12a [1]: 0.4029
- avg_logFC Myo1e [1]: 0.5786
- avg_logFC Nars [1]: 0.3687
- avg_logFC Ncl [1]: 0.3882
- avg_logFC Neat1 [1]: 0.6554
- avg_logFC Nedd4l [1]: 0.2635
- avg_logFC Nolc1 [1]: 0.4445
- avg_logFC Nop58 [1]: 0.6343
- avg_logFC Pfkfb2 [1]: 0.2694
- avg_logFC Phc2 [1]: 0.299
- avg_logFC Picalm [1]: 0.6766
- avg_logFC Plec [1]: 0.4188
- avg_logFC Plin2 [1]: 1.454
- avg_logFC Plk3 [1]: 0.4158
- avg_logFC Plscr1 [1]: 0.4497
- avg_logFC Ppan [1]: 0.2767
- avg_logFC Ppl [1]: 0.8618
- avg_logFC Prrc2c [1]: 0.3906
- avg_logFC Ptp4a1 [1]: 0.2517
- avg_logFC Ptpn1 [1]: 0.3865
- avg_logFC Ptpn2 [1]: 0.271
- avg_logFC Ptpn12 [1]: 0.3093
- avg_logFC Pxk [1]: 0.2652
- avg_logFC Rad54l2 [1]: 0.3642
- avg_logFC Ranbp2 [1]: 0.5074
- avg_logFC Rcan1 [1]: 0.701
- avg_logFC Rell1 [1]: 0.5793
- avg_logFC Retsat [1]: 0.2918
- avg_logFC Rnd3 [1]: 0.3267
- avg_logFC Rock2 [1]: 0.5552
- avg_logFC Rora [1]: 0.541
- avg_logFC S100a8 [1]: 1.127
- avg_logFC S100a9 [1]: 1.342
- avg_logFC Sat1 [1]: 0.6887
- avg_logFC Sdad1 [1]: 0.2969
- avg_logFC Sdc4 [1]: 0.5673
- avg_logFC Sds [1]: 0.3515
- avg_logFC Serpina3m [1]: 0.7932
- avg_logFC Serpina3n [1]: 0.6641
- avg_logFC Slc10a2 [1]: 0.2704
- avg_logFC Slc16a6 [1]: 0.914
- avg_logFC Slc20a1 [1]: 0.326
- avg_logFC Slc39a14 [1]: 0.9161
- avg_logFC Smg1 [1]: 0.3045
- avg_logFC Son [1]: 0.4555
- avg_logFC Spred1 [1]: 0.352
- avg_logFC Sqstm1 [1]: 0.6992
- avg_logFC Srgn [1]: 0.9289
- avg_logFC Srxn1 [1]: 1.864
- avg_logFC St3gal1 [1]: 0.517
- avg_logFC St3gal5 [1]: 0.4358
- avg_logFC Stat3 [1]: 0.652
- avg_logFC Stk40 [1]: 0.493
- avg_logFC Stom [1]: 0.3
- avg_logFC Tacc2 [1]: 0.3128
- avg_logFC Tars [1]: 0.4718
- avg_logFC Tatdn2 [1]: 0.3248
- avg_logFC Tbc1d15 [1]: 0.4322
- avg_logFC Tcerg1 [1]: 0.3468
- avg_logFC Tiparp [1]: 0.5248
- avg_logFC Tjp2 [1]: 0.3961
- avg_logFC Tm4sf4 [1]: 0.4006
- avg_logFC Tmem87b [1]: 0.4054
